For 14 molecules, IC50 and inhibition results are on record in ChEMBL document CHEMBL3352658 (Eur J Med Chem, 2014).

Bounds are passed on as bounds.

The target of the first assay is T1, Tumor necrosis factor (Homo sapiens, UniProt P01375). Briefly: Inhibition of TNFalpha (unknown origin) assessed as IkappaB-alpha phosphorylation in Hela cells after 15 mins by ELISA. It is filed as cell-based.
T1 sequence (P01375 whole entry): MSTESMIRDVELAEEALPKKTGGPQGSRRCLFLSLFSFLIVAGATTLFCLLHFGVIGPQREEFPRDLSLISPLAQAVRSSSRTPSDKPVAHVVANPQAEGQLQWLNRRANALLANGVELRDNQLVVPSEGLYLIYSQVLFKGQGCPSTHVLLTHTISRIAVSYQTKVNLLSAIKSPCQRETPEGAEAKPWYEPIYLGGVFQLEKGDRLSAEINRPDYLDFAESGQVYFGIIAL
Conditions: not given; call rule not given here
For `O=C1Nc2ccc(S(=O)(=O)Nc3ccc(O)c(Cl)c3)c3cccc1c23`, the IC50 was determined as 45.7 µM. On to `O=C1Sc2c(S(=O)(=O)Nc3ccc(O)cc3)cc(S(=O)(=O)Nc3ccc(O)cc3)c3cccc1c23`, for which the IC50 is 25.3 µM.

A further assay concerns the target T1, Tumor necrosis factor. Briefly: Inhibition of recombinant human TNFalpha binding to TNF receptor 1-ECD at 100 uM by surface plasmon resonance-based in vitro competitive binding assay.
Conditions: not given
In the case of `Cc1ccc(C(=O)C2=C(O)C(=O)N(c3cccc(C(F)(F)F)c3)C2c2ccccc2[N+](=O)[O-])cc1` (stereo not drawn), the inhibition was found to be 26%. On the same count and under the same terms, under `O=C1Nc2ccc(S(=O)(=O)Nc3ccc(O)c(Cl)c3)c3cccc1c23` stands 28%; under `CC(=O)Oc1ccc(C)cc1N1C(=O)c2cccc([N+](=O)[O-])c2C1=O`, 68%; under `O=S(=O)(Nc1cc(Cl)c(O)c(Cl)c1)c1ccc2ccccc2c1`, 37%. The same measure, in the same setting: under `CCc1nnc(NC(=O)CSc2nnc(-c3ccc([N+](=O)[O-])cc3)n2-c2ccc(C)cc2)s1` stands 35%. Same read-out and setting: under `COc1ccc(C2Nc3ccccc3-c3nnc(SCc4ccccc4Cl)nc3O2)cc1C` (stereo not drawn) stands 32%; under `CCOc1cc(/C=C2\C(=O)Nc3ccc(Br)cc32)cc(Cl)c1O`, 24%; under `O=C1Sc2c(S(=O)(=O)Nc3ccc(O)cc3)cc(S(=O)(=O)Nc3ccc(O)cc3)c3cccc1c23`, 52%. For `COC(=O)[C@@](NNc1ccc(C)c(C)c1)(NC(=O)c1ccc(Cl)cc1Cl)C(F)(F)F`, the inhibition stood at 17%. Still for that read-out and setting: under `N#CC1=C(N)Oc2n[nH]c(-c3ccccc3)c2C1c1ccc(OCC(N)=O)cc1` (stereo not drawn) stands 20%. On the same count and under the same terms, under `O=S(=O)(Nc1ccc(O)c(Cl)c1)c1ccc(F)cc1` stands 31%; under `Cc1cccc(/N=C2/NC(=O)/C(=C/c3cc(C)n(-c4cc(C(=O)O)cc(C(=O)O)c4)c3C)S2)c1C`, 32%; under `CCOc1cc(C2NC(=O)NC(c3ccccc3)=C2C(C)=O)c(Br)c(Br)c1OCC(N)=O` (stereo not drawn), 16%.

The target of another assay is T1, Tumor necrosis factor. Briefly: Inhibition of TNFalpha in HEK293T cells transfected with plasmid hRluc/TK/ luc2P/NF-kBRE/Hygro plasmid after 12 hrs by Dual-glo luciferase assay system. It is filed as cell-based, HEK-293T. Conditions: hek-293t.
Consider `O=C(O)CCCNS(=O)(=O)c1ccc2c3c(cccc13)C(=O)N2`, for which the IC50 entry was “Not Active”.

Staying with this assay, now noted: read-out: IC50.
For the molecule `O=C1Nc2ccc(S(=O)(=O)Nc3ccc(O)c(Cl)c3)c3cccc1c23`, the IC50 was 42.3 µM. With `O=S(=O)(Nc1cc(Cl)c(O)c(Cl)c1)c1ccc2ccccc2c1`, the IC50 is greater than 100 µM. On the same count and under the same terms, then `O=C1Sc2c(S(=O)(=O)Nc3ccc(O)cc3)cc(S(=O)(=O)Nc3ccc(O)cc3)c3cccc1c23`, with 14 µM; and `O=S(=O)(Nc1ccc(O)c(Cl)c1)c1ccc(F)cc1`, with greater than 100 µM.

Another assay deals with T1, Tumor necrosis factor. The assay can be described thus: Inhibition of TNFalpha in HEK293T cells transfected with plasmid hRluc/TK/ luc2P/NF-kBRE/Hygro plasmid at 90 uM after 12 hrs by Dual-glo luciferase assay system. As to conditions: HEK-293T. It is filed as cell-based.
In turn, `CCOc1cc(/C=C2\C(=O)Nc3ccc(Br)cc32)cc(Cl)c1O` registered an inhibition of 40%.

In a further assay the target is T1, Tumor necrosis factor. The assay can be described thus: Inhibition of TNFalpha in HEK293T cells transfected with plasmid hRluc/TK/ luc2P/NF-kBRE/Hygro plasmid at 30 uM after 12 hrs by Dual-glo luciferase assay system. It is filed as cell-based. As to conditions: HEK-293T.
For `O=S(=O)(Nc1cc(Cl)c(O)c(Cl)c1)c1ccc2ccccc2c1`, the inhibition stood at 30%. On to `O=S(=O)(Nc1ccc(O)c(Cl)c1)c1ccc(F)cc1`, for which the inhibition was 30%.
